Read-outs that look alike come from different tables or passages of the source.
Key:
Assay type in all cases: cell-based
PfCRT^Ecu1110 [1] = target: T1, PfCRT^Ecu1110 (Plasmodium falciparum, UniProt Q9N623, A220S/I356L/K76T/N326D); assay: [3H]CQ uptake into Xenopus oocytes, cis-inhibition by unlabelled solute
Summary of the method: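 Oocytes expressing PfCRT isoforms, or non-expressing controls, were incubated 1.5 h at 27.5 °C in ND96 buffer pH 5.5 (96 mM NaCl, 2 mM KCl, 1 mM MgCl2, 1.8 mM CaCl2, 10 mM MES, 10 mM Tris-base), measuring uptake from acidic medium into cytosol. Oocytes were washed ice-cold, SDS-lysed and counted by scintillation.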

PfNT1 = target: T2, PfNT1 (Plasmodium falciparum, UniProt Q8IDM6); assay: cell-based; details: for activity at 5000 µM: total [3H]CQ transport
T2 construct: expressed in transfected cells; host or cells: Xenopus laevis oocytes (stage V-VI), cRNA-injected
Summary of the method: (§1)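 Transport measured in Xenopus oocytes expressing the transporters, 1.5 h at 27.5 °C in ND96 pH 5.5 unless noted. For trans-stimulation, VF-6 injected in 25 nL ND96 at pH 5.0–7.0 or Na^+-free (choline) buffer; intracellular levels based on ~400 nL oocyte volume. Ten oocytes per treatment, ≥4 experiments.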

PfCRT^Dd2 = PfCRT^Dd2 (Plasmodium falciparum, UniProt Q9N623, A220S/I356T/K76T/M74I/N326S/N75E/Q271E/R371I); assay: cell-based; details: […]; for activity at 45000 µM: [test solute]i = 45 mM (30 mM for some solutes due to solubility)
Summary of the method: as §1

PfCRT^Ecu1110 [2] = target: T1, PfCRT^Ecu1110; assay: cell-based; details: […]
Summary of the method: as §1

PfCRT^3D7 = PfCRT^3D7 (Plasmodium falciparum, UniProt Q8IBZ9); assay: cell-based
Summary of the method: as §1

[3] = read-out: Uptake of [3H]CQ (% PfCRTDd2 control), cis-inhibition, PfCRTEcu1110, SEM
[4] = read-out: Uptake of [3H]CQ (% PfCRTEcu1110 control), cis-inhibition
[5] = read-out: [3H]CQ transport (% PfCRTEcu1110 control), cis-inhibition, PfCRTEcu1110, SEM

T1 sequence (Q9N623 whole entry A220S/I356L/K76T/N326D, canonical isoform): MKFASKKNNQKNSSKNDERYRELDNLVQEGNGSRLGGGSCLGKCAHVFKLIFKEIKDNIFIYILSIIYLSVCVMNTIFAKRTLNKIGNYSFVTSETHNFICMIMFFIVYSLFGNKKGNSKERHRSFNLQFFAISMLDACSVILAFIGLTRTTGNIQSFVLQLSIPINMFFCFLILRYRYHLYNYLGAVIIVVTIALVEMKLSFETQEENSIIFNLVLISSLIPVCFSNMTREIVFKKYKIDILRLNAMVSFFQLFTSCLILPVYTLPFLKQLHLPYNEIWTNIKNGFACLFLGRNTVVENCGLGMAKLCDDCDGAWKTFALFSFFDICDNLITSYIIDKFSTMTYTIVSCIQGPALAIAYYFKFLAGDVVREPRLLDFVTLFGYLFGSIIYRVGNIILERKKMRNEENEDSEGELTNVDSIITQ
Sequence of PfCRT^3D7 (Q8IBZ9 59-398): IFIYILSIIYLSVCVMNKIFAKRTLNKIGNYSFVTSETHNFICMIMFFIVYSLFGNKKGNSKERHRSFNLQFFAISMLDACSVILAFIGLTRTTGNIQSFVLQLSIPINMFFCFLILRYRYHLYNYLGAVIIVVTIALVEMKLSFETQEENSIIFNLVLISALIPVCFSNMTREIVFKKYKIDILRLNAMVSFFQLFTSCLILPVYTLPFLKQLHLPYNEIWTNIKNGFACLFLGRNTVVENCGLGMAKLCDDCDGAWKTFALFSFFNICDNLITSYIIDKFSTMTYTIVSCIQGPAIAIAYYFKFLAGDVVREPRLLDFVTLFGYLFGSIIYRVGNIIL
T2 sequence (Q8IDM6 whole entry): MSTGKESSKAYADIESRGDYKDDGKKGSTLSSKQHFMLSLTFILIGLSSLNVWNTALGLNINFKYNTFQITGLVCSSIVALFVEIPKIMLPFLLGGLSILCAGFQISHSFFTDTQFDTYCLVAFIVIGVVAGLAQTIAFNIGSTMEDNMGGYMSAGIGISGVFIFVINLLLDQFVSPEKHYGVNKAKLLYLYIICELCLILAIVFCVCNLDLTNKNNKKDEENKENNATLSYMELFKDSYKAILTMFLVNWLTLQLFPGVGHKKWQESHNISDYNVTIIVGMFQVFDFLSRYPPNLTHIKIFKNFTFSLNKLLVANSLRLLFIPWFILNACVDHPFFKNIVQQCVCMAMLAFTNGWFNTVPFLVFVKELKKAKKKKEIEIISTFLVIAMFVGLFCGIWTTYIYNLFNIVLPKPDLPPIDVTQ
Sequence of PfCRT^Dd2 (Q9N623 whole entry A220S/I356T/K76T/M74I/N326S/N75E/Q271E/R371I): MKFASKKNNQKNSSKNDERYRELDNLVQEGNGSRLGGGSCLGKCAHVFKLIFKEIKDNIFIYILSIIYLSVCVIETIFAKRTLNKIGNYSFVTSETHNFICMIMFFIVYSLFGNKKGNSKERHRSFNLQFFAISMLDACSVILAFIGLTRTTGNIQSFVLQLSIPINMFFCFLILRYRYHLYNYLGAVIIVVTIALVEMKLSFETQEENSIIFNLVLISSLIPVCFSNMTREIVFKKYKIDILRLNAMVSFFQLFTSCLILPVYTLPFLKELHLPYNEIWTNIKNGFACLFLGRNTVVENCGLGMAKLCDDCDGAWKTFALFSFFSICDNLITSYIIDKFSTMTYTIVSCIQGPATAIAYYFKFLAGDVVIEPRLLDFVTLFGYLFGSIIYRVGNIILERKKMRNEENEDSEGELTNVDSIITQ

SMILES: NC(=O)CC[C@H](N)C(=O)O [L-glutamine]
- inhibition at 500 µM (PfCRT^Ecu1110 [1]; [3]): 32 ± 0.4%
- inhibition at 1000 µM (PfCRT^Ecu1110 [1]; [3]): 32 ± 1.4%
- inhibition at 2000 µM (PfCRT^Ecu1110 [1]; [3]): 32 ± 1.1%
- inhibition at 500 µM (PfCRT^Ecu1110 [1]; [4]): 98 ± 6.9%
- inhibition at 1000 µM (PfCRT^Ecu1110 [1]; [4]): 97 ± 6.4%
- inhibition at 2000 µM (PfCRT^Ecu1110 [1]; [4]): 99 ± 6.3%
- inhibition at 500 µM (PfCRT^Ecu1110 [1]; [5]): 29 ± 1.2%
- inhibition at 1000 µM (PfCRT^Ecu1110 [1]; [5]): 29 ± 0.2%
- inhibition at 2000 µM (PfCRT^Ecu1110 [1]; [5]): 29 ± 0.1%
- activity at 5000 µM (PfNT1; PfNT1 oocytes, [test solute]i = 5 mM, normalised to the oocyte type control, read-out: Uptake of [3H]CQ (% PfNT1 control), trans-stimulation): 99 ± 4.2%
- activity at 45000 µM (PfNT1; SEM, read-out: Uptake of [3H]CQ (% PfCRTDd2 control), trans-stimulation, PfNT1): 2.8 ± 0.02%
- activity at 45000 µM (PfNT1; read-out: Uptake of [3H]CQ (% PfNT1 control), trans-stimulation): 98 ± 3.1%
- activity at 5000 µM (PfNT1; [test solute]i = 5 mM (intracellular), mean ± SEM, SEM, read-out: Uptake of [3H]CQ (% PfCRTDd2 control), trans-stimulation, PfNT1): 3.2 ± 0.02%
- activity at 5000 µM (PfCRT^Dd2; pH 5.5, read-out: PfCRT-mediated [3H]CQ transport, trans-stimulation (% PfCRTDd2 control), [test solute]i = 5 mM (intracellular), PfCRTDd2 oocytes, normalised to oocyte type control): 99 ± 3.4%
- activity at 5000 µM (PfCRT^Dd2; pH 5.5, read-out: Uptake of [3H]CQ (% PfCRTDd2 control), trans-stimulation, PfCRTDd2, total [3H]CQ transport, [test solute]i = 5 mM (intracellular), mean ± SEM, SEM): 101 ± 2.2%
- activity at 5000 µM (PfCRT^Dd2; pH 5.5, read-out: Uptake of [3H]CQ (% PfCRTDd2 control), trans-stimulation, PfCRTDd2 oocytes, [test solute]i = 5 mM, total [3H]CQ transport, normalised to the oocyte type control): 101 ± 2.2%
- activity at 45000 µM (PfCRT^Dd2; pH 5.5, read-out: Uptake of [3H]CQ (% PfCRTDd2 control), trans-stimulation, PfCRTDd2 oocytes, total [3H]CQ transport, normalised to the oocyte type control): 100 ± 2.4%
- activity at 5000 µM (PfCRT^Dd2; pH 5.5, read-out: [3H]CQ transport (% PfCRTDd2 control), trans-stimulation, PfCRTDd2, trans-stimulation, [test solute]i = 5 mM (injected), PfCRT-mediated component (background subtracted), mean ± SEM, SEM): 99 ± 3.4%
- activity at 45000 µM (PfCRT^Dd2; pH 5.5, read-out: [3H]CQ transport (% PfCRTDd2 control), trans-stimulation, PfCRTDd2, trans-stimulation, PfCRT-mediated component (background subtracted), mean ± SEM, SEM): 98 ± 3.7%
- activity at 5000 µM (PfCRT^Ecu1110 [2]; pH 5.5, read-out: PfCRT-mediated [3H]CQ transport, trans-stimulation (% PfCRTEcu1110 control), [test solute]i = 5 mM (intracellular), PfCRTEcu1110 oocytes, normalised to oocyte type control): 97 ± 3.3%
- activity at 5000 µM (PfCRT^Ecu1110 [2]; pH 5.5, read-out: Uptake of [3H]CQ (% PfCRTEcu1110 control), trans-stimulation, PfCRTEcu1110 oocytes, [test solute]i = 5 mM, total [3H]CQ transport, normalised to the oocyte type control): 99 ± 2.7%
- activity at 45000 µM (PfCRT^Ecu1110 [2]; pH 5.5, read-out: Uptake of [3H]CQ (% PfCRTEcu1110 control), trans-stimulation, PfCRTEcu1110 oocytes, [test solute]i = 45 mM (30 mM for some solutes due to solubility), total [3H]CQ transport, normalised to the oocyte type control): 99 ± 3.5%
- activity at 5000 µM (PfCRT^Ecu1110 [2]; read-out: Uptake of [3H]CQ (% PfCRTDd2 control), trans-stimulation, PfCRTEcu1110, total [3H]CQ transport, [test solute]i = 5 mM (intracellular), mean ± SEM, SEM): 35 ± 1.3%
- activity at 45000 µM (PfCRT^Ecu1110 [2]; read-out: Uptake of [3H]CQ (% PfCRTDd2 control), trans-stimulation, PfCRTEcu1110, total [3H]CQ transport, [test solute]i = 45 mM (intracellular; 30 mM for some solutes due to solubility), mean ± SEM, SEM): 35 ± 2.6%
- activity at 5000 µM (PfCRT^3D7; PfCRT3D7 oocytes, [test solute]i = 5 mM, total [3H]CQ transport, normalised to the oocyte type control, read-out: Uptake of [3H]CQ (% PfCRT3D7 control), trans-stimulation): 99 ± 3.2%
- [3H]CQ transport (% PfCRT3D7 control), trans-stimulation, PfCRT3D7 (PfCRT^3D7; SEM): 0.3 ± 0.01 % PfCRT3D7 control
- activity at 5000 µM (PfCRT^3D7; [test solute]i = 5 mM (intracellular), PfCRT3D7 oocytes, normalised to oocyte type control, read-out: PfCRT-mediated [3H]CQ transport, trans-stimulation (% PfCRT3D7 control)): 97 ± 4.6%
- activity at 45000 µM (PfCRT^3D7; SEM, read-out: Uptake of [3H]CQ (% PfCRTDd2 control), trans-stimulation, PfCRT3D7): 3.3 ± 0.04%
- activity at 45000 µM (PfCRT^3D7; read-out: PfCRT-mediated [3H]CQ transport, trans-stimulation (% PfCRT3D7 control)): 98 ± 1%
- activity at 45000 µM (PfCRT^3D7; read-out: Uptake of [3H]CQ (% PfCRT3D7 control), trans-stimulation): 100 ± 2.7%
- activity at 5000 µM (PfCRT^3D7; total [3H]CQ transport, [test solute]i = 5 mM (intracellular), mean ± SEM, SEM, read-out: Uptake of [3H]CQ (% PfCRTDd2 control), trans-stimulation, PfCRT3D7): 3.3 ± 0.01%

Reference: article PMC7413254 (Nature Communications, 2020)
